Patent publication US12636293B2, “Methods of treating charcot-marie-tooth disease” (CMTx Biotech Inc., priority 2019, dated 2026)

Key:
[1] = tested on: Charcot Marie Tooth Disease symptoms (neuropathic pain); assay: Case of a subject with Charcot Marie Tooth Disease treated with sub-antimicrobial dose doxycycline; assay type: in vivo, human
Procedure: The subject described the pain during the daytime hours as a 2/10 and during the evening hours as a 6/10, and experienced this pain consistently for the prior 10 years. The subject began taking a sub-antimicrobial dose of doxycycline, i.e., 20 mg twice daily (i.e. Periostat®). […] Throughout the treatment period, the subject described the pain during daytime hours as a 1/10, and during the evening hours also as a 1/10. […] Within 1 week of discontinuing twice-daily sub-antimicrobial dose doxycycline treatment, the subject experienced a return of the neuropathic pain in a sporadic manner.

[2] = dose of about 10 to about 20 mg/day; cited from earlier work

SMILES | adverse events ([1]; 20 mg twice daily for a period of 12 weeks) | time to return of neuropathic pain (sporadic) after discontinuing treatment ([1]; after 12 weeks of 20 mg twice daily) | pain during daytime hours (subject's description) ([1]; person with CMTD, 20 mg twice daily, throughout the treatment period (12 weeks), before treatment 2/10) | pain during the evening hours (subject's description) ([1]; person with CMTD, 20 mg twice daily, throughout the treatment period (12 weeks), before treatment 6/10) | plasma concentrations in humans [2]
C[C@H]1c2cccc(O)c2C(=O)C2=C(O)[C@]3(O)C(=O)C(C(N)=O)=C(O)[C@@H](N(C)C)[C@@H]3[C@@H](O)[C@@H]21 [doxycycline, 6α-deoxy-5-hydroxytetracycline] | no adverse events were observed | ≤ 1 week | 1/10 | 1/10 | 
NC(=O)C1=C(O)C[C@@H]2C[C@@H]3Cc4cccc(O)c4C(=O)C3=C(O)[C@]2(O)C1=O [CMT-3, 6-demethyl-6-deoxy-4-dedimethylaminotetracycline] |  |  |  |  | about 1.0 μg/ml
